Measured values published in ChEMBL document CHEMBL3808287, “AXL Inhibitors in Cancer: A Medicinal Chemistry Perspective” (J Med Chem, 2016).
pIC50: −log10 of the molar value. Blank lines part the entries; values can stand above or below the molecule they belong to.

Key:
[1] = target: T1, Tyrosine-protein kinase receptor UFO (Homo sapiens, UniProt P30530); assay: Inhibition of AXL (unknown origin)
T1 sequence (P30530 whole entry): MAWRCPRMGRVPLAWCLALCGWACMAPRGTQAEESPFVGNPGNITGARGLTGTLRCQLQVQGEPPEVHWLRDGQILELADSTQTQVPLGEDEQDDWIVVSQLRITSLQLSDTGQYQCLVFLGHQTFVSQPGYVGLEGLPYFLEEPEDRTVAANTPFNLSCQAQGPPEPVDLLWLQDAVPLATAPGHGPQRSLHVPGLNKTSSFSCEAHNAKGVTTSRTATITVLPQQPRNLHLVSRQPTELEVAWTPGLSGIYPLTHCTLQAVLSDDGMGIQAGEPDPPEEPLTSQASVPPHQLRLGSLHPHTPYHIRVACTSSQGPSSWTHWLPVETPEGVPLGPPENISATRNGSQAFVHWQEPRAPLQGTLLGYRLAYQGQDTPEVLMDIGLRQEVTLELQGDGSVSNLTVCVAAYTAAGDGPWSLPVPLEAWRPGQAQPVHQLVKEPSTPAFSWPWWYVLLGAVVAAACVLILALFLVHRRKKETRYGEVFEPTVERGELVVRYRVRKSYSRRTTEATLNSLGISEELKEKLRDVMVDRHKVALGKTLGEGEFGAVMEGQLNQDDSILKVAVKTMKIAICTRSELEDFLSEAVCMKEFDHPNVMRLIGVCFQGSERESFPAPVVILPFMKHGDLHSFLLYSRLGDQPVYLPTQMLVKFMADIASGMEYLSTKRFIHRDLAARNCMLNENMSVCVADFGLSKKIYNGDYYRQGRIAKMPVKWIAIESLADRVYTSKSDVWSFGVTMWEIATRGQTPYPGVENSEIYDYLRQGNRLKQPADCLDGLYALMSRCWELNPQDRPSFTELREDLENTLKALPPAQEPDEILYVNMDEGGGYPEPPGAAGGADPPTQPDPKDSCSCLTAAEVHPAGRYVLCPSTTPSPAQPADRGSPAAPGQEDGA

[2] = target: T1, Tyrosine-protein kinase receptor UFO; assay: Inhibition of AXL (unknown origin) by cell based assay
[3] = target: T1, Tyrosine-protein kinase receptor UFO; assay: Inhibition of human recombinant AXL expressed in Escherichia coli BL21 infected with T7 phage by qPCR method
[4] = target: Hepatocyte growth factor receptor (Homo sapiens, UniProt P08581); assay: Inhibition of human recombinant MET expressed in Escherichia coli BL21 infected with T7 phage by qPCR method
Hepatocyte growth factor receptor, sequence (P08581 whole entry): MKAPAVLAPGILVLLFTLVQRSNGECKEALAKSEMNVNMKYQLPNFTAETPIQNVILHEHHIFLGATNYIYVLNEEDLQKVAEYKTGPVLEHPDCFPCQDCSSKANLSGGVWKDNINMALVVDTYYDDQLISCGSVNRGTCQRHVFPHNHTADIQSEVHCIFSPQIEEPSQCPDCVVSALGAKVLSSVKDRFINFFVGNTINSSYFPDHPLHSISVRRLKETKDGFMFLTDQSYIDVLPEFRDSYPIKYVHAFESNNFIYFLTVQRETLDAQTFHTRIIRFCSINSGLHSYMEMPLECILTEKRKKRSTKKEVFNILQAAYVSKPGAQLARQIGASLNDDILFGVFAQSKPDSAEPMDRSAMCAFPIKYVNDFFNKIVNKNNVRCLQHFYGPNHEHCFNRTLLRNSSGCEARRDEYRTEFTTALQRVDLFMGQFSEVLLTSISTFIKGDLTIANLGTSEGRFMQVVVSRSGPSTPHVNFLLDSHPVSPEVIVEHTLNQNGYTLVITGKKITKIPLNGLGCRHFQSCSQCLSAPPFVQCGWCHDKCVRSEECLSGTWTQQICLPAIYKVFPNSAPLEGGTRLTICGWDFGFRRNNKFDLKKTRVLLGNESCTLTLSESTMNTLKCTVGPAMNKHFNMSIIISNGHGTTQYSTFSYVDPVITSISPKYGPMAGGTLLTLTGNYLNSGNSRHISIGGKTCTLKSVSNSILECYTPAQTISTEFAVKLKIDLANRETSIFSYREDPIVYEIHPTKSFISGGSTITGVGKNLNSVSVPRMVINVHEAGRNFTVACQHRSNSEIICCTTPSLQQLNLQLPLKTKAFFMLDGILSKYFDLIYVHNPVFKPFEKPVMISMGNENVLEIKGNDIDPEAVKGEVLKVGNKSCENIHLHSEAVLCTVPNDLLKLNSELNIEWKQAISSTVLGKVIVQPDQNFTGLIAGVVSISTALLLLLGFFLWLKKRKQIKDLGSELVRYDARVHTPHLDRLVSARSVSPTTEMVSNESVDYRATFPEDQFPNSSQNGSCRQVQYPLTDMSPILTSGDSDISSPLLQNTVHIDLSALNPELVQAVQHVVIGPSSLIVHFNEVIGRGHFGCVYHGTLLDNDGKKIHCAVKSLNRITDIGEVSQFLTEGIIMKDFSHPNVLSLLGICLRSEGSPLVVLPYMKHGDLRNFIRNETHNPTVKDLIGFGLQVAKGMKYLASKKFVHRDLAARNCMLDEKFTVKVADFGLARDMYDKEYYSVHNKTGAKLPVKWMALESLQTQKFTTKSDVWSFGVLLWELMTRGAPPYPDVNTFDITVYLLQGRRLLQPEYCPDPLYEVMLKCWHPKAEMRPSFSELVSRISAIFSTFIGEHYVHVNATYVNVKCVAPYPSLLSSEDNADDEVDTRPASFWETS

[5] = target: T1, Tyrosine-protein kinase receptor UFO; assay: Inhibition of AXL in human GIST cells; assay type: cell-based
[6] = target: T2, Tyrosine-protein kinase receptor TYRO3 (Homo sapiens, UniProt Q06418); assay: Inhibition of human recombinant TYRO3 by fluorescence polarization assay
T2 sequence (Q06418 whole entry): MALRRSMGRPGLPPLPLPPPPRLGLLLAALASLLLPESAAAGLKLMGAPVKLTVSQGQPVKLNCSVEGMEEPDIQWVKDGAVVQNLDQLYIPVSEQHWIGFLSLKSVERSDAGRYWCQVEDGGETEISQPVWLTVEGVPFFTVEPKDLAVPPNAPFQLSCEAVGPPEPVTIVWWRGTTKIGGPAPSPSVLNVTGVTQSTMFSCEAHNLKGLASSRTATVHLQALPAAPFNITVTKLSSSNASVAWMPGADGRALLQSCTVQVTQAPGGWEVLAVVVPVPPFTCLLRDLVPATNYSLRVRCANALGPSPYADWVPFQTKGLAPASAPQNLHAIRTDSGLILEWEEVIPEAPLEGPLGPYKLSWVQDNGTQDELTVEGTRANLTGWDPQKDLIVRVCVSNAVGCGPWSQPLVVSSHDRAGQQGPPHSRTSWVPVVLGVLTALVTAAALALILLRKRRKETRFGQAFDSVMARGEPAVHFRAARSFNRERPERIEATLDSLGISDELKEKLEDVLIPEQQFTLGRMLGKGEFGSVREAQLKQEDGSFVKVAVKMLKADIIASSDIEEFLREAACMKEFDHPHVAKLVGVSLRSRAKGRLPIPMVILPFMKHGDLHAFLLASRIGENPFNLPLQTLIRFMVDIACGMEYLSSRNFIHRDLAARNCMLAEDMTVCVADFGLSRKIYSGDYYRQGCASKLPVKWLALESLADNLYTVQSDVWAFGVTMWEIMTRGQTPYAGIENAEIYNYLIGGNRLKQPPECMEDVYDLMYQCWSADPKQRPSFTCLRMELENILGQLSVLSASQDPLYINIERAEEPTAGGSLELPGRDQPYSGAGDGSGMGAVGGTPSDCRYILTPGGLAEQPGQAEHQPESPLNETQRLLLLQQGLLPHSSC

[7] = test system: MDA-MB-231; assay: Antimetastatic activity against human MDA-MB-231-luc-D3H2LN cells xenografted in NCr nu/nu mouse assessed as mouse survival at 125 mg/kg, bid administered daily for 21 days measured on day 22 by bioluminescence imaging analysis; assay type: functional
[8] = target: Tyrosine-protein kinase ABL1 (Homo sapiens, UniProt P00519); assay: Inhibition of human recombinant ABL by fluorescence polarization assay
Tyrosine-protein kinase ABL1, sequence (P00519 whole entry): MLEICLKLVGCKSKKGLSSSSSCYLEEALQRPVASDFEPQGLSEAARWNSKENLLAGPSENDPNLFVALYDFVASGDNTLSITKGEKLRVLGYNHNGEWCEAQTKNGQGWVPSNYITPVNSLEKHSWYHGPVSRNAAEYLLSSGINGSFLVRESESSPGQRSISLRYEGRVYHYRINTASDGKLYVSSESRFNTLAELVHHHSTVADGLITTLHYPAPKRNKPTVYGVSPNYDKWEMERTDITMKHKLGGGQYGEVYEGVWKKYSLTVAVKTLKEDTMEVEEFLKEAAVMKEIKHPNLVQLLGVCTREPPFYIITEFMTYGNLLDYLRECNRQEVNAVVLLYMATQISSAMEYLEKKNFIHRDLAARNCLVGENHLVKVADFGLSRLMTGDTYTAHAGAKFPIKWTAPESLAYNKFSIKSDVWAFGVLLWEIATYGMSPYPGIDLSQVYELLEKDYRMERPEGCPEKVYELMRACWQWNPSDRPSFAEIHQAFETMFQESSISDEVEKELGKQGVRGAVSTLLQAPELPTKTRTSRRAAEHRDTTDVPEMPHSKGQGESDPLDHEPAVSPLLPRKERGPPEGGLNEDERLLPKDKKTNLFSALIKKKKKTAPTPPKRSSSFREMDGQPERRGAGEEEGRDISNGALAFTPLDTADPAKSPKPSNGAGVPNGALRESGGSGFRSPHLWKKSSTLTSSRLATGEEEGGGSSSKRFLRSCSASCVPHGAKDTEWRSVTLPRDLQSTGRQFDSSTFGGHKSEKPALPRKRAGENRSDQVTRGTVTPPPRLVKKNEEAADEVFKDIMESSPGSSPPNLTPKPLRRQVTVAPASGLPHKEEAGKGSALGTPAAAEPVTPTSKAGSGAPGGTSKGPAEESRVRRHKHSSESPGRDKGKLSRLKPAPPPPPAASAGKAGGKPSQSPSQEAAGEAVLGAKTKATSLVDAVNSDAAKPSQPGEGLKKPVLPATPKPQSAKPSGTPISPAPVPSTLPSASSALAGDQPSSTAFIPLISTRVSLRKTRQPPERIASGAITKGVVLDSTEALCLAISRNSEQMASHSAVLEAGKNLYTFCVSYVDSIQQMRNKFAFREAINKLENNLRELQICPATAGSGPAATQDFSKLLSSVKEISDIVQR

[9] = target: Vascular endothelial growth factor receptor 2 (Homo sapiens, UniProt P35968); assay: Inhibition of VEGFR2 (unknown origin)
Vascular endothelial growth factor receptor 2, sequence (P35968 whole entry): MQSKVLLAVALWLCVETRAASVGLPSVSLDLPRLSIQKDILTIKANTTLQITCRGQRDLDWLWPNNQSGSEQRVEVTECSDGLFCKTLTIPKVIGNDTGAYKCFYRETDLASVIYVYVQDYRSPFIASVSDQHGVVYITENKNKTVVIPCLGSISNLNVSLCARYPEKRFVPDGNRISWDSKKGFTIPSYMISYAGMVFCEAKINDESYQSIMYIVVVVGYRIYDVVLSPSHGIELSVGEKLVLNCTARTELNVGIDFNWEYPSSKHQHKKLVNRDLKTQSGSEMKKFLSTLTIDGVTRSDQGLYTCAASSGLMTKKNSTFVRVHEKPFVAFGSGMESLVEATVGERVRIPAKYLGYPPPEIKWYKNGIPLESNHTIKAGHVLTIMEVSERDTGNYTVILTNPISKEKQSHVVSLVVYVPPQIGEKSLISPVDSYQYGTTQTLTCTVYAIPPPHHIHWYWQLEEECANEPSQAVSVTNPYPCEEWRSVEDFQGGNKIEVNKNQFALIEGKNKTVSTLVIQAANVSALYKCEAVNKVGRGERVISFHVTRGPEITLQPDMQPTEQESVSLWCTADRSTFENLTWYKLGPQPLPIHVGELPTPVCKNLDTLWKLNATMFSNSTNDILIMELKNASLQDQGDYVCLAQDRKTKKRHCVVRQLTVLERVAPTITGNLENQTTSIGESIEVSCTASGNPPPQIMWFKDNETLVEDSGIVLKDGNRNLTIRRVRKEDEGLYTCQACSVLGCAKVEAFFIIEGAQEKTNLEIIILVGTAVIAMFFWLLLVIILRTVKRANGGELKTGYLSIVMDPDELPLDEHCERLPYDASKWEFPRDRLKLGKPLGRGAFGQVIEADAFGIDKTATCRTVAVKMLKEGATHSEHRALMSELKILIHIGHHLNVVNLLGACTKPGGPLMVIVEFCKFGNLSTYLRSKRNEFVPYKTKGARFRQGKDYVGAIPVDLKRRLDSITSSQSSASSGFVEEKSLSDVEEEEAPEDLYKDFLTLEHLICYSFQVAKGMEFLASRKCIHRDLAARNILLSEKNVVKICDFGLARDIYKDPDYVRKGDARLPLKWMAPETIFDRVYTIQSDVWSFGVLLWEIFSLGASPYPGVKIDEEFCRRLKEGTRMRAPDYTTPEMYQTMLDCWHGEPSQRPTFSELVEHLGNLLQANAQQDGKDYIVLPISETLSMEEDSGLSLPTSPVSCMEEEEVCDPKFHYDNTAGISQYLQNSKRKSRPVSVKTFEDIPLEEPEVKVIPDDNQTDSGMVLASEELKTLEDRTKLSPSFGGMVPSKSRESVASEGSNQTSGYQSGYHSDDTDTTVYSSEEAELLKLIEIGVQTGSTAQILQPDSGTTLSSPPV

[10] = target: T1, Tyrosine-protein kinase receptor UFO; assay: Inhibition of human full length AXL after 4 hrs followed by stimulation with human recombinant Gas6 for 15 minutes by cell based assay
[11] = target: T1, Tyrosine-protein kinase receptor UFO; assay: Inhibition of human full length AXL by scintillation counting method in presence of 33P-gammaATP

pIC50 [3]: 8.00
pIC50 [2]: > 6.30
pIC50 [4]: 7.32
SMILES: Cc1c(C(=O)Nc2ccc(Oc3ccnc4[nH]cc(-c5ccccc5)c34)c(F)c2)c(=O)n(-c2ccc(F)cc2)n1C

pIC50 [5]: > 6.00
SMILES: S=C(NCc1ccc2c(c1)OCO2)N1CCN(c2ncnc3c2oc2ccccc23)CC1 [AMUVATINIB]

pIC50 [9]: 9.00
SMILES: COCCNCc1ccc(-c2cc3nccc(Oc4ccc(NC(=S)NC(=O)Cc5ccc(F)cc5)cc4F)c3s2)nc1 [GLESATINIB]

Continued, molecule first:

SMILES: Cc1c[nH]c2nc(Nc3ccc(N4CCN(C)CC4)c(F)c3)nc(-c3cccc(CC#N)c3)c12
pIC50 [1]: 7.24
pIC50 [2]: > 6.00

SMILES: Nc1nc(Nc2ccc3c(c2)CC[C@@H](N2CCCC2)CC3)nn1-c1cc2c(nn1)-c1ccccc1CCC2 [BEMCENTINIB]
pIC50 [6]: < 6.15
survival at 125 mg/kg [7]: > 35%
pIC50 [8]: < 6.15

SMILES: Cc1ccc(C(=O)Nc2ccc(Oc3cc4cnn(C)c4cc3-c3cn[nH]c3)c(F)c2)c(=O)n1-c1ccc(F)cc1 [MERESTINIB]
pIC50 [10]: 8.70
pIC50 [11]: 7.96
